According to ChEMBL document CHEMBL5244213, “Current advances in drug discovery for Chagas disease” (Eur J Med Chem, 2018):

Key:
[1] = test system: Trypanosoma cruzi; assay: Antitrypanosomal activity against Trypanosoma cruzi Y […] transfected in monkey LLC-MK2 cells assessed as inhibition of […] viability measured after 24 hrs by Neubauer chamber based analysis; format: functional, organism-based; conditions: LLC-MK2, 24 h
[2] = test system: Trypanosoma cruzi; assay: Antitrypanosomal activity against Trypanosoma cruzi Y intracellular amastigote transfected in monkey LLC-MK2 cells assessed as inhibition of intracellular amastigote viability measured after 24 hrs by Neubauer chamber based analysis; format: functional, organism-based; conditions: LLC-MK2, 24 h
[3] = Selectivity index, ratio of IC50 for cytotoxicity against monkey LLC-MK2 cells to IC50 for antitrypanosomal activity against Trypanosoma cruzi Y […] transfected in monkey LLC-MK2 cells; format: toxicity, cell-based; conditions: read-out: Ratio IC50
[4] = Selectivity index, ratio of IC50 for cytotoxicity against monkey LLC-MK2 cells to IC50 for antitrypanosomal activity against Trypanosoma cruzi Y intracellular amastigote transfected in monkey LLC-MK2 cells; format: toxicity, cell-based; conditions: read-out: Ratio IC50
[5] = test system: Trypanosoma cruzi; assay: Antitrypanosomal activity against Trypanosoma cruzi Y […] transfected in African green monkey Vero cells assessed as inhibition of […] viability measured after 48 hrs by DAPI staining based fluorescence microscopic assay; format: functional, organism-based
[6] = test system: Trypanosoma cruzi; assay: Antitrypanosomal activity against Trypanosoma cruzi Sylvio X-10 intracellular amastigotes transfected in African green monkey Vero cells assessed as inhibition of intracellular amastigotes viability measured after 72 hrs by giemsa-staining based analysis; format: functional, organism-based; conditions: Sylvio X-10, Vero
[7] = Selectivity index, ratio of IC50 for cytotoxicity against African green monkey Vero cells to IC50 for antitrypanosomal activity against Trypanosoma cruzi X-10 intracellular amastigotes transfected in African green monkey Vero cells; format: toxicity, cell-based; conditions: read-out: Ratio IC50
[8] = test system: Trypanosoma cruzi; assay: Antitrypanosomal activity against Trypanosoma cruzi Tulahuen 2 intracellular epimastigotes assessed as viability of […] measured after 5 days by absorbance based analysis; format: functional, organism-based; conditions: Tulahuen 2, 120 h
[9] = Selectivity index, ratio of IC50 for cytotoxicity against mouse J774.1 cells to IC50 for antitrypanosomal activity against Trypanosoma cruzi Tulahuen 2 […]; format: toxicity, cell-based; conditions: read-out: Ratio IC50
[10] = test system: Trypanosoma cruzi; assay: Antitrypanosomal activity against Trypanosoma cruzi […] assessed as inhibition of […] viability; format: functional, organism-based
[11] = test system: Trypanosoma cruzi; assay: Antitrypanosomal activity against Trypanosoma cruzi Y intracellular amastigotes assessed as inhibition of intracellular amastigotes viability at 10 uM measured after 72 hrs relative to control; format: functional
[12] = test system: Trypanosoma cruzi; assay: Antitrypanosomal activity against Trypanosoma cruzi Dm28c […] transfected in African green monkey Vero cells assessed as inhibition of […] viability measured after 24 hrs by MTT assay; format: functional, organism-based
[13] = test system: Trypanosoma cruzi; assay: Antitrypanosomal activity against Trypanosoma cruzi Dm28c intracellular amastigotes transfected in African green monkey Vero cells assessed as inhibition of intracellular amastigotes viability measured after 24 hrs by MTT assay; format: functional, organism-based
[14] = Selectivity index, ratio of IC50 for cytotoxicity against African green monkey Vero cells to IC50 for antitrypanosomal activity against Trypanosoma cruzi Dm28c […] transfected in African green monkey Vero cells; format: toxicity, cell-based; conditions: read-out: Ratio IC50
[15] = Selectivity index, ratio of IC50 for cytotoxicity against African green monkey Vero cells to IC50 for antitrypanosomal activity against Trypanosoma cruzi Dm28c intracellular amastigotes transfected in African green monkey Vero cells; format: toxicity, cell-based; conditions: read-out: Ratio IC50
[16] = test system: Trypanosoma cruzi; assay: Antitrypanosomal activity against Trypanosoma cruzi Tulahuen CL2 intracellular amastigotes transfected in human MRC5 cells assessed as inhibition of intracellular amastigotes viability using […] substrate measured after 7 days by chlorophenol red […] staining based analysis; format: functional, organism-based; conditions: Tulahuen CL2, MRC5, 168 h

## N/C(S)=N/N=C/c1ccc([N+](=O)[O-])cc1
[1]
  IC50: 1430 nM
[2]
  IC50: 11800 nM
[3]
  selectivity ratio: 26.2
[4]
  selectivity ratio: 11.6

## O=C(OCCCCCCCCCCCC[P+](c1ccccc1)(c1ccccc1)c1ccccc1)c1cc(O)c(O)c(O)c1
[5]
  EC50: 1000 nM

## O=C(OCCCCCCCCCC[P+](c1ccccc1)(c1ccccc1)c1ccccc1)c1cc(O)c(O)c(O)c1
[5]
  EC50: 1000 nM

## C=CCn1c(C(=O)N2CCN(C/C=C/c3ccccc3)CC2)cs\c1=N/N=C/C=C/c1ccco1
[6]
  IC50: 700 nM
[7]
  selectivity ratio: 433

## O=C(CS/C(C(=O)c1ccc2ccccc2c1)=C1\C=C(c2ccc(O)cc2)SS1)c1ccc2ccccc2c1
[8]
  IC50: 4900 nM
[9]
  selectivity ratio: 12.8

## COc1cccc(Nc2c(C#N)cnc3ccc(Cl)cc23)c1
[10]
  IC50: < 1000 nM
[11]
  inhibition at 10 µM: 65%

## CC1(C(CC(=O)/C=C/c2ccccc2)c2ccccc2)N=C(c2ccccc2)OC1=O (configuration not stated)
[12]
  IC50: 33000 nM
[13]
  IC50: 2340 nM
[14]
  selectivity ratio: 6.74
[15]
  selectivity ratio: 95

## CCOc1cccc2sc(N(Cc3cccnc3)C(=O)C3CCCCC3)nc12
[16]
  IC50: 160 nM
